Results from article PMC7576608, “Mechanisms of telomerase inhibition by oxidized and therapeutic dNTPs” (Nature Communications, 2020).

Biological target: telomerase (Homo sapiens, UniProt O14746)
Experiment: Telomerase extension of 32P-end labeled primers with a single dNTP (percent primer extension)
Type: biochemical
Parameters: made in house; anti-FLAG immunopurification, eluted with 3xFLAG peptide
Conditions: for Percent Primer Extension: 50 μM single dNTP
Procedure: A chain terminating mechanism of inhibition requires that the enzyme adds the modified dNTP to a growing chain, which then blocks further synthesis. […] To test whether telomerase can incorporate other modified dNTPs, and whether the incorporation is chain terminating and/or mutagenic, we conducted direct extension assays in which we radiolabeled the primer and added increasing concentrations (5, 50, and 500 μM) of a single dNTP (Supplementary Figs. 3, 5, 6, and 7). Since modified dNTPs may prefer mispairing, we tested various primers in which the first template base was either rA3, rC1, or rU5 (primer 1, primer 2, and primer 3, respectively), and compared the percent primer extension for each dNTP at the middle 50 μM concentration (Fig. 3). Primers 1 and 2 initiate synthesis at consecutive rA3rA4 or rC1rC2 template bases, respectively, so we could examine both incorporation and extension to the next base. However, the telomerase template lacks tandem rU residues.
Fig. 3 Telomerase insertion of modified dNTPs. Telomerase reactions were conducted with 5 nM ^32P-end labeled primer a Primer 1 (TTAGGG)3, b Primer 2 (GGTTAG)3, or c Primer 3 (AGGGTT)3. Reactions contained cellular-concentration dNTPs (lane 1) or 50 μM of indicated natural dNTP (blue, lanes 2–5), oxidized dNTP (red, lanes 6–8), or therapeutic dNTP (green, lanes 9–11). Products were separated on denaturing gels. […] Letters on the right indicate the template base; P indicates unextended 18-mer primer. Graphs represent the percent of total primers extended. Images are representative of, and data are shown as mean ± s.d. from, three independent experiments. Source data are provided as a Source Data file.
An equal volume of loading buffer (94% formamide, 0.1× TBE, 0.1% bromophenol blue, 0.1% xylene cyanol) was added to the reaction eluent. The samples were heat denatured for 10 min at 100 °C and loaded onto a 14% denaturing acrylamide gel (7 M urea, 1× TBE) and electrophoresed for 90 min at constant 38 W. Samples were imaged using a Typhoon phosphorimager (GE Healthcare). Percent primer extension was calculated with ImageQuant TL 8.2 by measuring the intensity of each product band and dividing by the total radioactivity in the lane or total products, as indicated in the figure legends.
Telomerase reactions were conducted with 5 nM 32P-end labeled primer (a) Primer 1 (TTAGGG)3, (b) Primer 2 (GGTTAG)3, or (c and d) Primer 3 […]
(d) reactions contained 3 µg/µl RNase A. Products were separated on denaturing gels. Letters on the right indicate the template base; P indicates unextended 18-mer primer. Graphs represent the percent of total primers extended for the reactions in panels a – c from one experiment. Panel d is a representative image from three independent experiments. Source data are provided as a Source Data file. […]
Supplementary Fig 4. Time course reactions with telomerase or pol β. (a, b) Telomerase reactions were conducted with 5 nM 32P-end labeled primer (a) Primer 4 (GTTAGG)3 or (b) Primer 2 (GGTTAG)3.
Products were separated on denaturing gels. Letters on the right indicate the template base; P indicates […]
unextended 18-mer primer. […]

[1] = Primer 1 (TTAGGG)3, first template base rA3, Mean of three experiments
[2] = Primer 2 (GGTTAG)3, first template base rC1, Mean of three experiments
[3] = end-labeled primers, single dNTP
[4] = Primer 2 (GGTTAG)3, first template base rC1, single experiments n1-n3
[5] = Primer 3 (AGGGTT)3, first template base rU5, Mean of three experiments
[6] = Primer 3 (AGGGTT)3, first template base rU5, single experiments n1-n3

telomerase, sequence (O14746 whole entry): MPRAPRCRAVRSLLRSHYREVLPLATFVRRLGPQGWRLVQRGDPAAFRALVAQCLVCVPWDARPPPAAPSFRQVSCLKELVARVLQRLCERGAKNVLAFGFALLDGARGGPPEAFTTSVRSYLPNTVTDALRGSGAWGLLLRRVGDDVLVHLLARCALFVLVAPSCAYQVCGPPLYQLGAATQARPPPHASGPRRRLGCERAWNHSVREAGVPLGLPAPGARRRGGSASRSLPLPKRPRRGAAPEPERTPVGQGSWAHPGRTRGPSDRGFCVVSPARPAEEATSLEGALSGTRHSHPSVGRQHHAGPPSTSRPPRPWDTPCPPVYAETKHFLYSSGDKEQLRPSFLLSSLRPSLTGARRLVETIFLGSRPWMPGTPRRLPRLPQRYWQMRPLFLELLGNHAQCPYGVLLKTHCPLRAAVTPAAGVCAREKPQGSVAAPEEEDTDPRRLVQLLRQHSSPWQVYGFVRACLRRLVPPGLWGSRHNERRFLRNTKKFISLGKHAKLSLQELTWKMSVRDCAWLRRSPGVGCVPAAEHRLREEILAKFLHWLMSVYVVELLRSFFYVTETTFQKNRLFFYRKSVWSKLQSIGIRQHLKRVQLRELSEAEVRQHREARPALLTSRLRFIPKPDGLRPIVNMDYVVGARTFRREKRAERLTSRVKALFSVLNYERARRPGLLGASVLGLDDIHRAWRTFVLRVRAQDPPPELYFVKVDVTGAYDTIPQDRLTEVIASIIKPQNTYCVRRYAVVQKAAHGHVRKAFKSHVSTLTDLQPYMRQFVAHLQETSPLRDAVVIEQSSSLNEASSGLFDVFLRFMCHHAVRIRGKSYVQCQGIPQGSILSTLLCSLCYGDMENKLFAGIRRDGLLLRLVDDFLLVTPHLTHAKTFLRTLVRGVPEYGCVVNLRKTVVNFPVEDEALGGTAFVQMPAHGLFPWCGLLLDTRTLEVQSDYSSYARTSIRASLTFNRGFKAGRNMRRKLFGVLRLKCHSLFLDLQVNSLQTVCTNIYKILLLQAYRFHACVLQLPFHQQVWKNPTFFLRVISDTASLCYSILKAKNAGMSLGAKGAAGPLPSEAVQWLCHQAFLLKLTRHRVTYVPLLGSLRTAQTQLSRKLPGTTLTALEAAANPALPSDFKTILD

## Nc1nc(O)nc2c1ncn2C1CC(O)C(COP(=O)(O)OP(=O)(O)OP(=O)(O)O)O1 (stereo not shown) [2-OH-dATP]
[1]
  Percent Primer Extension: 2.82%
Primer 1, 5µM dNTP
  % Primer Extension: 0.00%
Primer 1, 50µM dNTP
  % Primer Extension: 1.98%
Primer 1, 500µM dNTP
  % Primer Extension: 6.01%
[2]
  Percent Primer Extension: 1.32%
Primer 2, 5µM dNTP
  % Primer Extension: 0.00%
Primer 2, 50µM dNTP
  % Primer Extension: 1.93%
Primer 2, 500µM dNTP
  % Primer Extension: 3.14%
Primer 3, insertion opposite rU5, 50 μM
  Fold less product than with dATP: 2 fold
Primer 3, 5µM dNTP
  % Primer Extension: 8.27%
Primer 3, 50µM dNTP
  % Primer Extension: 15.94%
Primer 3, 500µM dNTP
  % Primer Extension: 46.35%
Misinsertion opposite rA3 and rC1
  Mutagenic insertion by telomerase (in words): not mutagenic

## Nc1nc2c(ncn2C2CC(O)C(COP(=O)(O)OP(=O)(O)OP(=O)(O)O)O2)c(=S)[nH]1 (stereo not shown) [6-thio-dGTP]
Primer 1, 5µM dNTP
  % Primer Extension: 0%
Primer 1, 50µM dNTP
  % Primer Extension: 3.68%
Primer 1, 500µM dNTP
  % Primer Extension: 4.47%
Primer 2, 5µM dNTP
  % Primer Extension: 6.19%
Primer 2, 50µM dNTP
  % Primer Extension: 6.25%
Primer 2, 500µM dNTP
  % Primer Extension: 8.35%
Primer 3, 5µM dNTP
  % Primer Extension: 6.75%
Primer 3, 50µM dNTP
  % Primer Extension: 6.04%
Primer 3, 500µM dNTP
  % Primer Extension: 7.79%
[3]
  Chain termination after telomerase insertion (in words): not a telomerase chain terminator

## Nc1ncnc2c1[nH]c(=O)n2C1CC(O)C(COP(=O)(O)OP(=O)(O)OP(=O)(O)O)O1 (stereo not shown) [8-oxo-dATP]
[1]
  Percent Primer Extension: 0.53%
Primer 1, 5µM dNTP
  % Primer Extension: 0.00%
Primer 1, 50µM dNTP
  % Primer Extension: 0.00%
Primer 1, 500µM dNTP
  % Primer Extension: 1.79%
[2]
  Percent Primer Extension: 0.00%
[4]
  Percent Primer Extension: 0.00%
Primer 2, 5µM dNTP
  % Primer Extension: 0.00%
Primer 2, 50µM dNTP
  % Primer Extension: 0.00%
Primer 2, 500µM dNTP
  % Primer Extension: 0.00%
[5]
  Percent Primer Extension: 0.00%
[6]
  Percent Primer Extension: 0.00%
Primer 3, 5µM dNTP
  % Primer Extension: 0.00%
Primer 3, 50µM dNTP
  % Primer Extension: 0.00%
Primer 3, 500µM dNTP
  % Primer Extension: 0.00%
[3]
  Quality as telomerase substrate (in words): very poor substrate for telomerase

## Nc1nc2c([nH]c(=O)n2C2CC(O)C(COP(=O)(O)OP(=O)(O)OP(=O)(O)O)O2)c(=O)[nH]1 (stereo not shown) [8-oxo-dGTP]
[1]
  Percent Primer Extension: 10.80%
Primer 1, 5µM dNTP
  % Primer Extension: 5.20%
Primer 1, 50µM dNTP
  % Primer Extension: 7.44%
Primer 1, 500µM dNTP
  % Primer Extension: 8.42%
[2]
  Percent Primer Extension: 0.96%
Primer 2, 5µM dNTP
  % Primer Extension: 0.88%
Primer 2, 50µM dNTP
  % Primer Extension: 1.37%
Primer 2, 500µM dNTP
  % Primer Extension: 6.18%
[5]
  Percent Primer Extension: 0.00%
[6]
  Percent Primer Extension: 0.00%
Primer 3, 5µM dNTP
  % Primer Extension: 0.00%
Primer 3, 50µM dNTP
  % Primer Extension: 0.00%
Primer 3, 500µM dNTP
  % Primer Extension: 0.00%
[3]
  Chain termination after telomerase insertion (in words): chain-terminating ability

## Cc1cn([C@H]2C[C@H](N=[N+]=[N-])[C@@H](CO[P@](=O)(O)O[P@](=O)(O)OP(=O)(O)O)O2)c(=O)[nH]c1=O [AZT-TP]
[2]
  Percent Primer Extension: 0.00%
[4]
  Percent Primer Extension: 0.00%
[5]
  Percent Primer Extension: 0.00%
[6]
  Percent Primer Extension: 0.00%
[3]
  Chain termination after telomerase insertion (in words): genuine telomerase chain terminators

## Nc1ncnc2c1ncn2C1CC(O)C(COP(=O)(O)OP(=O)(O)OP(=O)(O)O)O1 (stereo not shown) [dATP]
[1]
  Percent Primer Extension: 3.48%
Primer 1, 5µM dNTP
  % Primer Extension: 0.00%
Primer 1, 50µM dNTP
  % Primer Extension: 1.84%
Primer 1, 500µM dNTP
  % Primer Extension: 3.63%
[2]
  Percent Primer Extension: 0.00%
[4]
  Percent Primer Extension: 0.00%
Primer 2, 5µM dNTP
  % Primer Extension: 0.00%
Primer 2, 50µM dNTP
  % Primer Extension: 0.00%
Primer 2, 500µM dNTP
  % Primer Extension: 2.50%
Primer 3, 5µM dNTP
  % Primer Extension: 11.52%
Primer 3, 50µM dNTP
  % Primer Extension: 14.88%
Primer 3, 500µM dNTP
  % Primer Extension: 23.85%

## Nc1nc2c(ncn2C2CC(O)C(COP(=O)(O)OP(=O)(O)OP(=O)(O)O)O2)c(=O)[nH]1 (stereo not shown) [dGTP]
Primer 1, 5 µM dGTP, one experiment
  % Primer Extension: 5.54%
Primer 1, 50 µM dGTP, one experiment
  % Primer Extension: 14.06%
Primer 1, 500 µM dGTP, one experiment
  % Primer Extension: 18.26%
Primer 2, 5 µM dGTP, one experiment
  % Primer Extension: 20.91%
Primer 2, 50 µM dGTP, one experiment
  % Primer Extension: 31.85%
Primer 2, 500 µM dGTP, one experiment
  % Primer Extension: 40.91%
Primer 3, 5 µM dGTP, one experiment
  % Primer Extension: 2.22%
Primer 3, 50 µM dGTP, one experiment
  % Primer Extension: 6.90%
Primer 3, 500 µM dGTP, one experiment
  % Primer Extension: 12.81%
Time course, 50 μM dGTP, primer 2 (GGTTAG)3, 0 minutes
  % Primer Extension: 0.00%
Time course, 50 μM dGTP, primer 2 (GGTTAG)3, 1 minute
  % Primer Extension: 1.70%
Time course, 50 μM dGTP, primer 2 (GGTTAG)3, 3 minutes
  % Primer Extension: 2.22%
Time course, 50 μM dGTP, primer 2 (GGTTAG)3, 5 minutes
  % Primer Extension: 2.61%
Time course, 50 μM dGTP, primer 2 (GGTTAG)3, 9 minutes
  % Primer Extension: 2.82%
Time course, 50 μM dGTP, primer 2 (GGTTAG)3, 15 minutes
  % Primer Extension: 7.50%
Time course, 50 μM dGTP, primer 2 (GGTTAG)3, 30 minutes
  % Primer Extension: 7.57%
Time course, 50 μM dGTP, primer 2 (GGTTAG)3, 45 minutes
  % Primer Extension: 7.80%
Time course, 50 μM dGTP, primer 4 (GTTAGG)3, 0 minutes
  % Primer Extension: 0.00%
Time course, 50 μM dGTP, primer 4 (GTTAGG)3, 1 minute
  % Primer Extension: 1.79%
Time course, 50 μM dGTP, primer 4 (GTTAGG)3, 3 minutes
  % Primer Extension: 0.86%
Time course, 50 μM dGTP, primer 4 (GTTAGG)3, 5 minutes
  % Primer Extension: 1.17%
Time course, 50 μM dGTP, primer 4 (GTTAGG)3, 9 minutes
  % Primer Extension: 1.23%
Time course, 50 μM dGTP, primer 4 (GTTAGG)3, 15 minutes
  % Primer Extension: 1.72%
Time course, 50 μM dGTP, primer 4 (GTTAGG)3, 30 minutes
  % Primer Extension: 4.10%
Time course, 50 μM dGTP, primer 4 (GTTAGG)3, 45 minutes
  % Primer Extension: 8.71%

## Cc1cn(C2CC(O)C(COP(=O)(O)OP(=O)(O)OP(=O)(O)O)O2)c(=O)[nH]c1=O (stereo not shown) [dTTP]
Primer 1, 5µM dNTP
  % Primer Extension: 30.00%
Primer 1, 50µM dNTP
  % Primer Extension: 36.00%
Primer 1, 500µM dNTP
  % Primer Extension: 45.00%
[2]
  Percent Primer Extension: 0.00%
[4]
  Percent Primer Extension: 0.00%
Primer 2, 5µM dNTP
  % Primer Extension: 0.00%
Primer 2, 50µM dNTP
  % Primer Extension: 0.00%
Primer 2, 500µM dNTP
  % Primer Extension: 0.00%
Primer 3, 5µM dNTP
  % Primer Extension: 3.79%
Primer 3, 50µM dNTP
  % Primer Extension: 9.26%
Primer 3, 500µM dNTP
  % Primer Extension: 17.69%

## O=c1[nH]cnc2c1ncn2C1CCC(COP(=O)(O)OP(=O)(O)OP(=O)(O)O)O1 (stereo not shown) [ddITP]
[1]
  Percent Primer Extension: 1.59%
Primer 1, 5µM dNTP
  % Primer Extension: 3.46%
Primer 1, 50µM dNTP
  % Primer Extension: 4.29%
Primer 1, 500µM dNTP
  % Primer Extension: 6.73%
Primer 2, 5µM dNTP
  % Primer Extension: 0%
Primer 2, 50µM dNTP
  % Primer Extension: 4.27%
Primer 2, 500µM dNTP
  % Primer Extension: 5.45%
[5]
  Percent Primer Extension: 0.00%
[6]
  Percent Primer Extension: 0.00%
Primer 3, 5µM dNTP
  % Primer Extension: 0%
Primer 3, 50µM dNTP
  % Primer Extension: 0%
Primer 3, 500µM dNTP
  % Primer Extension: 0%
[3]
  Chain termination after telomerase insertion (in words): genuine telomerase chain terminators
